Patent US8030518B2, “1,4 diamino bicyclic retigabine analogues as potassium channel modulators” (Valeant Pharmaceuticals International, priority 2006, dated 2011)

Legend:
KCNQ2/3 heteromultimers = biological target: T1, KCNQ2/3 heteromultimers (Rattus norvegicus, UniProt O88943+O88944); assay: cell-based Rb+ efflux assay in PC-12 cells; details: Rb+ efflux cellular assay
T1 construct: endogenous in cells; host or cells: PC-12 cells differentiated with NGF-7s; no transfection described
Procedure: Compounds of this invention formula were evaluated for activity toward potassium channels in a cell-based Rb^+ efflux assay. This cellular bioassay is believed to faithfully represent the M channel activities identified with KCNQ2/3 heteromultimers. […] Additionally, antiseizure activity in vivo was evaluated in a mouse maximal electroshock seizure (MES) model, and neurotoxicities were determined from a rotorod neurocognitive motor impairment model and open field observation.
PC-12 cells were grown at 37° C. and 5% CO2 in DMEM/F12 Medium (Dulbecco's Modified Eagle Medium with Nutrient Mix F-12, available from Invitrogen of Carlsbad, Calif.), supplemented with 10% horse serum, 5% fetal bovine serum, 2 mM glutamine, 100 U/ml penicillin, and 100 U/ml streptomycin. They were plated in poly-D-lysine-coated 96-well cell culture microplates at a density of 40,000 cells/well and differentiated with 100 ng/ml NGF-7s for 2-5 days. For the assay, the medium was aspirated, and the cells were washed once with 0.2 ml wash buffer (25 mM HEPES, pH 7.4, 150 mM NaCl, 1 mM MgCl2, 0.8 mM NaH2PO4, 2 mM CaCl2). The cells were then loaded with 0.2 ml Rb^+ loading buffer (wash buffer plus 5.4 mM […], 5 mM glucose) and incubated at 37° C. for 2 h. Attached cells were washed quickly three times with buffer (same as Rb^+ loading buffer, but containing 5.4 mM KCl instead of RbCl) to remove extracellular Rb^+. Immediately following the wash, 0.2 ml of depolarization buffer (wash buffer plus 15 mM KCl solution) with or without compounds was added to the cells to activate efflux of potassium ion channels. After incubation for 10 min at room temperature, the supernatant was carefully removed and collected. Cells were lysed by the addition of 0.2 ml of lysis buffer (depolarization buffer plus 0.1% Triton X-100) and the cell lysates were also collected. If collected samples were not immediately analyzed for Rb^+ contents by atomic absorption spectroscopy (see below), they were stored at 4° C. without any negative effects on subsequent Rb^+ analysis.
The concentrations of Rb^+ in the supernatants (Rb^+Sup) and the cell lysates (Rb^+Lys) were quantified using an ICR8000 flame atomic absorption spectrometer (Aurora Biomed Inc., Vancouver, B.C.) under conditions defined by the manufacturer. Samples 0.05 ml in volume were processed automatically from microtiter plates by dilution with an equal volume of Rb^+ sample analysis buffer and injection into an air-acetylene flame. The amount of Rb^+ in the sample was measured by absorption at 780 nm using a hollow cathode lamp as light source and a PMT detector. A calibration curve covering the range 0-5 mg/L Rb^+ in sample analysis buffer was generated with each set of plates. The percent Rb^+ efflux (F) was defined by F=[Rb^+Sup/(Rb^+Sup+Rb^+Lys)]×100%. […] The efflux (F) and compound concentration relationship was plotted to calculate an EC50 value, a compound's concentration for 50% of maximal Rb^+ efflux. Seizure Model Tests

[1] = test system: maximal electroshock seizure; assay: mouse maximal electroshock seizure (MES) test; assay type: in vivo; parameters: key: A: active; B: inactive; details: ip dosing of 12.5 mg/kg
Source text: The MES testing protocol is based on procedures established at the National Institute of Neurological Disorders and Stroke in conjunction with the Anticonvulsant Screening Program (ASP) at the University of Utah (White, H. S., Woodhead, J. H., Wilcox, K. S., Stables, J. P., Kupferberg, H. J and Wolf, H. H. 2002. “General Principles: Discovery and Preclinical Development of Antiepileptic Drugs,” in Antiepileptic Drugs, 5th Edition, R. H. Levy, ed.; R. H. Mattson, B. S. Meldrum, and E. Perucca. Philadelphia, Lippincott Williams & Wilkins.), The goal of the test is to rapid identify and characterize the in vivo anticonvulsant activity of any compounds that have been shown active in PC-12 cellular based Rb^+ efflux assay.
Adult male CF-1 albino mice (18-25 g, Charles River Laboratories) are […] used for MES screening of compounds. Male Sprague-Dawley albino rats (100-125 g, Charles River Laboratories) are also used to test anticonvulsant compounds. Animals are permitted to rest and recover from transit for at least 48 hr prior to experimentation. Animals are used for AED testing only once. In some instances, the animals can be anesthetized prior to blood collection or whole brain extraction for pharmacokinetic assay. All animals are maintained and handled as outlined in standard animal care guidelines.
In the experiments, testing compounds are prepared as suspensions in 0.5% methyl cellulose (Sigma, Cat # M0512, Viscosity 4000 cP at 20° C.) in water, regardless of solubility. Dry powder compounds are initially ground with a glass rod in a test tube in several drops of methyl cellulose to create a paste and to break down any large chunks. After several minutes of grinding, the volume of the suspension is increased to the final concentration desired. The suspension is then sonicated using a Branson sonicator model 3510 in a water bath at room temperature for 15 minutes. Compound suspensions are further vortexed prior to animal dosing. In some of the cases, DMSO is used to initially solubilize compounds in small volumes and then this solution is added to the 0.5% methyl cellulose solution, in order to create more even and less aggregated compound suspensions. The final concentration of DMSO is 3.75%, an amount with no apparent toxicity or neuroprotective effects in our usual rotarod and MES tests. Methyl cellulose/DMSO compound suspensions are identically prepared for intraperitoneally (i.p.)dosing to mice or orally (p.o.) dosing to rats.
Initially the animals are weighed with an electronic scale and then marked. Data recording sheets are generated for each compound assessment. Mice or rats are dosed with the compound suspension at 0.01 mL/g of body weight. The typical injection volume range is between 180-250 μl for mice. Compounds are dosed by i.p. to mice using a 25 or 22 gauge needle, depending on the viscosity of the suspension. Rats are p.o. dosed using a flexible feeding tube, typically starting at a compound dose of 5 mg/kg.
A Rodent Electroconvulsive Stimulator (Model 200, Hamit-Darvin-Freesh, Snow Canyon Clinic, Ivins, Utah) is used for MES testing. A 60-Hz alternating current (50 mA for mice; 150 mA for rats) is delivered for 0.2 seconds through corneal electrodes to the mice. A drop of 0.5% tetracaine (Sigma, Cat. # T-7508) solution is placed on the eye prior to current delivery. The electrodes are subsequently placed gently onto the eyes of the animal and the electrical shock is initiated by triggering through a foot-pedal activator. The animals are restrained by hand and gently released as the shock is delivered and the seizure commences. Animals are monitored for hind limb tonic extension as the end point for this test. Current delivery is recorded as a measure of overall seizure-induction potential. Electrical current delivery can vary from approximately 30-55 mA (mice) or 90-160 mA (rats) depending on impedance in the animal and quality of the current delivery (i.e. correct placement of the electrodes on the cornea). […]

| Compound | EC50 (KCNQ2/3 heteromultimers) [nM] | Mouse MES test [1] |
| --- | --- | --- |
| Cc1c(Br)c2c(c(C)c1NC(=O)CC(C)(C)C)CCCC2Nc1ccc(C(F)(F)F)cc1 (centres unmarked) | > 500 |  |
| Cc1cc2c(c(C)c1NC(=O)CC(C)(C)C)CCCC2Nc1ccc(F)cc1 (single isomer, unassigned; (+)) [Example 4, (+)N-(5-(4-fluorophenylamino)-1,3-dimethyl-5,6,7,8-tetrahydronaphthalen-2-yl)-3,3-dimethylbutanamide] | 10 to 50 | A |
| Cc1cc2c(c(C)c1NC(=O)CC(C)(C)C)CCC2Nc1ccc(F)cc1 (single isomer, unassigned; (+)) [Example 13, (+) N-(1-(4-fluorophenylamino)-4,6-dimethyl-2,3-dihydro-1H-inden-5-yl)-3,3-dimethylbutanamide] | 1 to 10 | A |
| Cc1cc2c(c(C)c1NC(=O)CC(C)(C)C)CCC2Nc1ccc(C(F)(F)F)cc1 (single isomer, unassigned; (+)) [Example 16, (+) N-(4,6-dimethyl-1-(4-(trifluoromethyl)phenylamino)-2,3-dihydro-1H-inden-5-yl)-3,3-dimethylbutanamide] | 1 to 10 | A |
| Cc1cc2c(c(C)c1NC(=O)CC(C)(C)C)CCCC2Nc1ccc(F)cc1 (single isomer, unassigned; (-)) [Example 3, (−)N-(5-(4-fluorophenylamino)-1,3-dimethyl-5,6,7,8-tetrahydronaphthalen-2-yl)-3,3-dimethylbutanamide] | 1 to 10 | A |
| Cc1cc2c(c(C)c1NC(=O)CC(C)(C)C)CCCC2Nc1ccc(F)cc1 (centres unmarked) [Example 2, N-(5-(4-fluorophenylamino)-1,3-dimethyl-5,6,7,8-tetrahydronaphthalen-2-yl)-3,3-dimethylbutanamide] | 10 to 50 | A |
| Cc1cc2c(c(C)c1NC(=O)CC(C)(C)C)CCCC2Nc1ccc(C(F)(F)F)cc1 (centres unmarked) [Example 5, N-(1,3-dimethyl-5-(4-(trifluoromethyl)phenylamino)-5,6,7,8-tetrahydronaphthalen-2-yl)-3,3-dimethylbutanamide] | 1 to 10 | A |
| Cc1cc2c(c(C)c1NC(=O)CC(C)(C)C)CCCC2Nc1ccc(Cl)c(Cl)c1 (centres unmarked) [Example 6, N-(1,3-dimethyl-5-(3,4-dichlorophenylamine)-5,6,7,8-tetrahydronaphthalen-2-yl)-3,3-dimethylbutanamide] | 1 to 10 | B |
| Cc1cc2c(c(C)c1NC(=O)CC(C)(C)C)CCCC2Nc1ccc(Cl)cc1 (centres unmarked) [Example 7, N-(1,3-dimethyl-5-(4-chlorophenylamino)-5,6,7,8-tetrahydronaphthalen-2-yl)-3,3-dimethylbutanamide] | 1 to 10 | A |
| Cc1cc2c(c(C)c1NC(=O)CC(C)(C)C)CCCC2Nc1ccc(Br)cc1 (centres unmarked) [Example 8, N-(1,3-dimethyl-5-(4-bromophenylamino)-5,6,7,8-tetrahydronaphthalen-2-yl)-3,3-dimethylbutanamide] | 1 to 10 |  |
| Cc1cc2c(c(C)c1NC(=O)CC(C)(C)C)CCCC2Nc1cccc(Cl)c1 (centres unmarked) [Example 9, N-(1,3-dimethyl-5-(3-chlorophenylamino)-5,6,7,8-tetrahydronaphthalen-2-yl)-3,3-dimethylbutanamide] | 1 to 10 | A |
| Cc1cc2c(c(C)c1NC(=O)CC(C)(C)C)CCCC2Nc1cc(F)cc(F)c1 (centres unmarked) [Example 10, N-(1,3-dimethyl-5-(3,5-difluorophenylamino)-5,6,7,8-tetrahydronaphthalen-2-yl)-3,3-dimethylbutanamide] | 1 to 10 | A |
| Cc1cc2c(c(C)c1NC(=O)CC(C)(C)C)CCC2Nc1ccc(Cl)cc1 (centres unmarked) [Example 17, N-(4,6-dimethyl-1-(4-chlorophenylamino)-2,3-dihydro-1H-inden-5-yl)-3,3-dimethylbutanamide] | ≤ 1 | A |
| Cc1cc2c(c(C)c1NC(=O)CC(C)(C)C)CCC2Nc1ccc(Br)cc1 (centres unmarked) [Example 18, N-(4,6-dimethyl-1-(4-bromophenylamino)-2,3-dihydro-1H-inden-5-yl)-3,3-dimethylbutanamide] | ≤ 1 | A |
| Cc1cc2c(c(C)c1NC(=O)CC(C)(C)C)CCC2Nc1cccc(Cl)c1 (centres unmarked) [Example 19, N-(4,6-dimethyl-1-(3-chlorophenylamino)-2,3-dihydro-1H-inden-5-yl)-3,3-dimethylbutanamide] | 1 to 10 | A |
| Cc1cc2c(c(C)c1NC(=O)CC(C)(C)C)CCC2Nc1ccc(Cl)c(Cl)c1 (centres unmarked) [Example 20, N-(4,6-dimethyl-1-(3,4-dichlorophenylamine)-2,3-dihydro-1H-inden-5-yl)-3,3-dimethylbutanamide] | ≤ 1 | A |
| Cc1cc2c(c(C)c1NC(=O)CC(C)(C)C)CCC2Nc1ccc(F)c(F)c1 (centres unmarked) [Example 21, N-(4,6-dimethyl-1-(3,4-difluorophenylamino)-2,3-dihydro-1H-inden-5-yl)-3,3-dimethylbutanamide] | 1 to 10 | A |
| Cc1cc2c(c(C)c1NC(=O)CC(C)(C)C)CCC2Nc1cc(F)cc(F)c1 (centres unmarked) [Example 22, N-(4,6-dimethyl-1-(3,5-difluorophenylamino)-2,3-dihydro-1H-inden-5-yl)-3,3-dimethylbutanamide] | 1 to 10 | A |
| CCOC(=O)Nc1ccc2c(c1)CCC2Nc1ccc(F)cc1 (centres unmarked) [Example 25, Ethyl 1-(4-fluorophenylamino)-2,3-dihydro-1H-inden-5-yl-carbamate] | > 500 |  |
